Test results: article PMC9668832, “Increased slow dynamics defines ligandability of BTB domains” (Nature Communications, 2022)

Molecular target: T1, MIZ1^BTB (Homo sapiens, UniProt Q13105)
T1 construct: gene ZBTB17; BTB domain, residues 1-115; N-terminal Trx-His6 tag cleaved with PreScission; E. coli BL21(DE3); 13C,15N-labelled; homodimer in solution
T1 sequence (Q13105 1-115): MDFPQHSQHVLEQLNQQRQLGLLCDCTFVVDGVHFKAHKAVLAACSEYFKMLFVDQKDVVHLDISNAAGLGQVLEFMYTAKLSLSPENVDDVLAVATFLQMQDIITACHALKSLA
Assay: 1H-15N HSQC NMR titration
Type: binding

SMILES	Kd [µM]
Nc1ccc(-n2cnc(Cl)c2Cl)cc1 [2GG4]	68 ± 9
OC1(c2ccc(Cl)c(C(F)(F)F)c2)CCNCC1 [4CC2]	425 ± 59
Cc1nc2ccc(Cl)cc2nc1C [5DD7]	870 ± 140
